The structures appear in SMILES notation. Values after ≈ are worked out from the molar mass of the structure shown. Active and inactive are the calls of the source. No cut-off for these calls is given here.

One experiment concerns Aspergillus nidulans. Put plainly: Growth inhibition of Aspergillus nidulans at 0 to 300 ug/ml incubated for 4 days. It is filed as functional, organism-based.
In the case of `N[C@@H](Cc1ccccc1)c1cc(O)cc(=O)o1`, the “growth inhibition (GI)” value was “Active”.

The subject of another experiment is Candida albicans. Put plainly: Antifungal activity against Candida albicans SC5314 up to 100 ug/ml after 48 hrs by microdilution assay. The format is functional, organism-based. (In general: Dilution methods test growth across graded concentrations, often in twofold steps.)
With `COc1cc([C@H](Cc2cccc(Cl)c2)NC(C)=O)oc(=O)c1`, the outcome was inactive.

Regarding `COc1cc([C@H](Cc2ccc(F)cc2)NC(C)=O)oc(=O)c1`, the result was inactive.

In the case of `COc1cc([C@H](Cc2ccc(C)cc2)NC(C)=O)oc(=O)c1`, the outcome was inactive.

On to `COc1cc([C@H](Cc2ccc(Br)cc2)NC(C)=O)oc(=O)c1`, for which the result was inactive.

As for `COc1cc([C@H](Cc2ccccc2Cl)NC(C)=O)oc(=O)c1`, the outcome was inactive.

As for `COc1cc([C@H](Cc2ccc(Cl)cc2)NC(C)=O)oc(=O)c1`, the outcome was inactive.

As to `COc1cc([C@H](Cc2ccccc2)NC(C)=O)oc(=O)c1`, the result was inactive.

Another experiment concerns T47D. Put plainly: Growth inhibition of human T47D cells. The format is functional, cell-based.
`COc1cc([C@H](Cc2ccccc2)NC(C)=O)oc(=O)c1`: the IC50 was found to be 9.2 µg/mL (≈ 32 µM).

What is called IC50 is the point on the concentration scale where inhibition reaches its midpoint.

These data come from ChEMBL document CHEMBL4613259, “Biosynthesis of Amino Acid Derived α-Pyrones by an NRPS-NRPKS Hybrid Megasynthetase in Fungi” (J Nat Prod, 2020).
